{"source": "patent EP4309647A1", "about": "“G[…] FRACTIONS OF PINE NUT SKIN, METHODS AND USES THEREOF” (Universidade de Aveiro, priority 2022, dated 2024)", "experiment": "Effect on cholesterol solubility / bioaccessibility in an in vitro intestinal model (GDCA bile salt micelles, 13C NMR quantification of [4-13C]cholesterol)", "settings": "cholesterol 3.5 mM, amount equivalent to 3.5 mM β-sitosterol", "description": "In an embodiment, to evaluate the effect of the lipophilic extracts on cholesterol solubility, an in vitro intestinal model with glycodehoxycholic acid (GDCA) at 37 °C and pH 7.4 was used.\nIn an embodiment, solutions of cholesterol labeled with carbon-13 at carbon 4 ([4-^13C]cholesterol) with or without pine nut skin extracts was prepared in azeotropic mixtures of chloroform/methanol (87:13, v/v). Films are formed by solvent evaporation under a stream of nitrogen and heating. To remove possible traces of organic solvents, the films with cholesterol were placed on a desiccator under vacuum during, for example, 30 minutes at room temperature. […]\nIn an embodiment, to evaluate this effect, the bioaccessibility of labelled cholesterol([4-^13C]cholesterol) was measured by ^13C NMR, using an in vitro intestinal model composed of glycodeoxycholic acid bile salt micelles and lipophilic extracts from pine nut skin and from the two separated fractions, added individually.\nIn an embodiment, the quantification of cholesterol by ^13C NMR was possible due to the utilization of an isotopomer of cholesterol fully enriched in ^13C in carbon 4, which has a typical peak at 44 ppm, distinguishable from GDCA resonances. […] This methodology allows to quantify [4-^13C] cholesterol which is emulsified on the bile salt micelles, that is, the available quantity which is likely to be absorbed (bioaccessible). […]"}
{"smiles": "CC[C@H](CC[C@@H](C)[C@H]1CC[C@H]2[C@@H]3CC=C4C[C@@H](O)CC[C@]4(C)[C@H]3CC[C@]12C)C(C)C", "note": "[β-Sitosterol]", "values": [{"measurement": "cholesterol emulsified (solubilized, bioaccessible)", "setting": "GDCA 50 mM", "result": 1.6, "unit": "mM"}, {"measurement": "reduction of cholesterol solubility / bioaccessability relatively to the control", "setting": "control = GDCA and [4-13C]cholesterol", "result": 49, "unit": "%"}]}
